In patent US20250223281A1, “ANTIDIABETIC COMPOUNDS AND COMPOSITIONS” (REZUBIO PHARMACEUTICALS CO., LTD, priority 2022, published 2025):

Target: T1, GPR40 (Homo sapiens, UniProt O14842)
T1 construct: expressed in transfected cells; host or cells: HEK293 cells stably expressing GPR40 (Hygromycin selection)
Assay: IP1 accumulation assay in HEK293 cells stably expressing GPR40
Type: cell-based
Outline: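 HEK293 cells stably expressing human GPR40 were incubated with compounds (10-point, 3-fold dilution series) for 2 h at 37 °C, then IP1 was detected by HTRF (665/615 nm ratio). Effect was normalised to DMSO blank and AMG-1638 as 100%, and EC50 was derived from dose curves.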

[1] = IP1 accumulation, HEK293 cells stably expressing GPR40, 2 hours at 37° C., % effect relative to AMG-1638, table of Biological Example 1
[2] = Table A-8 (additional examples), obtained by methods of Biological Example 1
[3] = Tables A-1a to A-7b (structure-property relationship), obtained by methods of Biological Example 1

T1 sequence (O14842 whole entry): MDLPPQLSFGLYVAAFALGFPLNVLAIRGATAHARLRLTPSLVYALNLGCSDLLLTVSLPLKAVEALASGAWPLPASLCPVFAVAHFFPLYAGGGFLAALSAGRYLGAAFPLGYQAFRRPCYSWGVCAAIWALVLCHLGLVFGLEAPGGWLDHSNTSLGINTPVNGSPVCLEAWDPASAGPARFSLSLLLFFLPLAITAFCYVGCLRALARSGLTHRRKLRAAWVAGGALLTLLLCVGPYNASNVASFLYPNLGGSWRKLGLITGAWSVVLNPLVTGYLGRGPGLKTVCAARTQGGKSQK

Row | Compound | EC50 [1] [nM] | EC50 [2] [nM] | EC50 [3] [nM]
1 | C[C@H](C(=O)O)[C@H](c1ccc2c(c1)O[C@@H](C1CCN(Cc3cc(-n4cc(COCCOCCOCCOCC(=O)NCC[N+](C)(CCC(=O)NCCN)CCC(=O)NCCN)nn4)ccc3OC(F)(F)F)CC1)CC2)C1CC1 [Example 175] | > 10000 | > 10000 | –
2 | C[C@H](C(=O)O)[C@H](c1ccc2c(c1)O[C@@H](C1CCN(Cc3cc(-n4cc(COCCOCCOCCOCCOCC(=O)NCC[N+](C)(CCC(=O)NCCN)CCC(=O)NCCN)nn4)ccc3OC(F)(F)F)CC1)CC2)C1CC1 [Example 176] | > 10000 | > 10000 | –
3 | COc1ccc(C(=O)N(CC(C)(C)CCn2cc(CCCCCCCCCCCCCCC(=O)NCC[N+](C)(CCC(=O)NCCN)CCC(=O)NCCN)nn2)c2cccc(C)n2)c(N2CCC(c3cc4ccc([C@@H](CC(=O)O)C5CC5)cc4o3)CC2)c1 [Example 177] | 0.08 | – | –
4 | COc1ccc(C(=O)N(CC(C)(C)CCn2cc(COCCOCCOCCOCCOCC(=O)NCC[N+](C)(CCC(=O)NCCN)CCC(=O)NCCN)nn2)c2cccc(C)n2)c(N2CCC(c3cc4ccc([C@@H](CC(=O)O)C5CC5)cc4o3)CC2)c1 [Example 178] | 2030 | – | –
5 | COc1ccc(F)c(-n2nnc(COc3cccc([C@@H](CC(=O)O)C4CC4)c3)c2CC(C)(C)Cn2cc(CCCCCCCCCCCCCCCC(=O)NCCN(CCC(=O)NCCN)CCC(=O)NCCN)nn2)c1 [Example 179] | 50 | – | –
6 | COc1ccc(F)c(-n2nnc(COc3cccc([C@@H](CC(=O)O)C4CC4)c3)c2CC(C)(C)Cn2cc(COCCOCCOCCOCCOCC(=O)NCCN(CCC(=O)NCCN)CCC(=O)NCCN)nn2)c1 [Example 180] | > 10000 | – | –
7 | COc1ccc(F)c(-n2nnc(COc3cccc([C@@H](CC(=O)O)C4CC4)c3)c2CC(C)(C)Cn2cc(CCCCCCCCCCCCCCCC(=O)NCC[N+](C)(CCC(=O)NCCN)CCC(=O)NCCN)nn2)c1 [Example 181] | 16.1 | – | –
8 | COc1ccc(F)c(-n2nnc(COc3cccc([C@@H](CC(=O)O)C4CC4)c3)c2CC(C)(C)Cn2cc(COCCOCCOCCOCCOCC(=O)NCC[N+](C)(CCC(=O)NCCN)CCC(=O)NCCN)nn2)c1 [Example 182] | > 10000 | – | –
9 | C[C@H](C(=O)O)[C@H](c1ccc2c(c1)O[C@@H](C1CCN(Cc3cc(-n4cc(CCCCCCCCCCCCCCCC(=O)NCCN(CCC(=O)NCCN)CCC(=O)NCCN)nn4)ccc3OC(F)(F)F)CC1)CC2)C1CC1 [Example 185] | 0.05 | 0.05 | 0.05
10 | C[C@H](C(=O)O)[C@H](c1ccc2c(c1)O[C@@H](C1CCN(Cc3cc(-n4cc(CCCCCCCCCCCCCCCC(=O)NCC[N+](C)(CCC(=O)NCCN)CCC(=O)NCCN)nn4)ccc3OC(F)(F)F)CC1)CC2)C1CC1 [Example 186] | 0.03 | 0.05 | 0.05
11 | COc1ccc(F)c(-c2ccc(COc3cccc([C@@H](CC(=O)O)C4CC4)c3)cc2CC(C)(C)Cn2cc(CCCCCCCCCCCCCCCC(=O)NCCN(CCC(=O)NCCN)CCC(=O)NCCN)nn2)c1 [Example 187] | 1.34 | 1.34 | 1.34
12 | COc1ccc(F)c(-c2ccc(COc3cccc([C@@H](CC(=O)O)C4CC4)c3)cc2CC(C)(C)Cn2cc(CCCCCCCCCCCCCCCC(=O)NCC[N+](C)(CCC(=O)NCCN)CCC(=O)NCCN)nn2)c1 [Example 188] | 1.53 | 1.53 | 1.53
13 | COc1ccc(C(=O)N(CC(C)(C)CCCCCCn2cc(CCCCCCCCCCCCCC(=O)NCCN(CCC(=O)NCCN)CCC(=O)NCCN)nn2)c2cccc(C)n2)c(N2CCC(COc3cc([C@@H](CC(=O)O)C4CC4)ccn3)CC2)c1 [Example 189] | 0.05 | – | 0.05
14 | COc1ccc(C(=O)N(CC(C)(C)CCCCCCn2cc(CCCCCCCCCCCCCC(=O)NCC[N+](C)(CCC(=O)NCCN)CCC(=O)NCCN)nn2)c2cccc(C)n2)c(N2CCC(COc3cc([C@@H](CC(=O)O)C4CC4)ccn3)CC2)c1 [Example 190] | 0.05 | – | 0.05
15 | COc1ccc(F)c(-c2ccc(COc3cccc([C@@H](CC(=O)O)C4CC4)c3)cc2CC(C)(C)Cn2cc(CCCCCCCCCC(=O)NCCN(CCC(=O)NCCN)CCC(=O)NCCN)nn2)c1 [Example 191] | 204 | 209 | 204
16 | COc1ccc(F)c(-c2ccc(COc3cccc([C@@H](CC(=O)O)C4CC4)c3)cc2CC(C)(C)Cn2cc(CCCCCCCCCC(=O)NCC[N+](C)(CCC(=O)NCCN)CCC(=O)NCCN)nn2)c1 [Example 192] | 250 | 251 | 250
17 | C[C@H](C(=O)O)[C@H](c1ccc2c(c1)O[C@@H](C1CCN(Cc3cc(-n4cc(CCCCCCCCCC(=O)NCCN(CCC(=O)NCCN)CCC(=O)NCCN)nn4)ccc3OC(F)(F)F)CC1)CC2)C1CC1 [Example 193] | 413 | 413 | 413
18 | C[C@H](C(=O)O)[C@H](c1ccc2c(c1)O[C@@H](C1CCN(Cc3cc(-n4cc(CCCCCCCCCC(=O)NCC[N+](C)(CCC(=O)NCCN)CCC(=O)NCCN)nn4)ccc3OC(F)(F)F)CC1)CC2)C1CC1 [Example 194] | 114 | 94 | 114

Row | Compound | EC50 [1] [nM] | EC50 [2] [nM] | EC50 [3] [nM]
19 | COc1ccc(C(=O)N(CC(C)(C)CCn2cc(CCCCC(=O)NCCN(CCC(=O)NCCN)CCC(=O)NCCN)nn2)c2cccc(C)n2)c(N2CCC(COc3cc([C@@H](CC(=O)O)C4CC4)ccn3)CC2)c1 [Example 195] | > 10000 | – | –
20 | COc1ccc(C(=O)N(CC(C)(C)CCn2cc(CCCCCCC(=O)NCCN(CCC(=O)NCCN)CCC(=O)NCCN)nn2)c2cccc(C)n2)c(N2CCC(COc3cc([C@@H](CC(=O)O)C4CC4)ccn3)CC2)c1 [Example 196] | 9870 | – | 9870
21 | COc1ccc(C(=O)N(CC(C)(C)CCn2cc(CCCCCCCCCC(=O)NCCN(CCC(=O)NCCN)CCC(=O)NCCN)nn2)c2cccc(C)n2)c(N2CCC(COc3cc([C@@H](CC(=O)O)C4CC4)ccn3)CC2)c1 [Example 197] | 84.3 | 84 | 84.3
22 | COc1ccc(C(=O)N(CC(C)(C)CCn2cc(CCCCCCCCCCCCCCCC(=O)NCCN(CCC(=O)NCCN)CCC(=O)NCCN)nn2)c2cccc(C)n2)c(N2CCC(COc3cc([C@@H](CC(=O)O)C4CC4)ccn3)CC2)c1 [Example 198] | 0.17 | 0.17 | 0.17
23 | COc1ccc(C(=O)N(CC(C)(C)CCn2cc(CCCCC(=O)NCC[N+](C)(CCC(=O)NCCN)CCC(=O)NCCN)nn2)c2cccc(C)n2)c(N2CCC(COc3cc([C@@H](CC(=O)O)C4CC4)ccn3)CC2)c1 [Example 199] | > 10000 | – | > 10000
24 | COc1ccc(C(=O)N(CC(C)(C)CCn2cc(CCCCCCC(=O)NCC[N+](C)(CCC(=O)NCCN)CCC(=O)NCCN)nn2)c2cccc(C)n2)c(N2CCC(COc3cc([C@@H](CC(=O)O)C4CC4)ccn3)CC2)c1 [Example 200] | > 10000 | – | > 10000
25 | COc1ccc(C(=O)N(CC(C)(C)CCn2cc(CCCCCCCCCC(=O)NCC[N+](C)(CCC(=O)NCCN)CCC(=O)NCCN)nn2)c2cccc(C)n2)c(N2CCC(COc3cc([C@@H](CC(=O)O)C4CC4)ccn3)CC2)c1 [Example 201] | 44.6 | 45 | 45
26 | COc1ccc(C(=O)N(CC(C)(C)CCn2cc(CCCCCCCCCCCCCCCC(=O)NCC[N+](C)(CCC(=O)NCCN)CCC(=O)NCCN)nn2)c2cccc(C)n2)c(N2CCC(COc3cc([C@@H](CC(=O)O)C4CC4)ccn3)CC2)c1 [Example 202] | 0.16 | 0.16 | 0.16
27 | COc1ccc(C(=O)N(CC(C)(C)CCCCCCn2cc(CCCCCCCCC(=O)NCCCN(CC(=O)O)CC(=O)O)nn2)c2cccc(C)n2)c(N2CCC(COc3cc([C@@H](CC(=O)O)C4CC4)ccn3)CC2)c1 [Example 203] | 11.9 | – | –
28 | COc1ccc(C(=O)N(CC(C)(C)CCCCCCn2cc(CCCCCCCCCC(=O)NCCCN(CC(=O)O)CC(=O)O)nn2)c2cccc(C)n2)c(N2CCC(COc3cc([C@@H](CC(=O)O)C4CC4)ccn3)CC2)c1 [Example 204] | 7 | – | –
29 | COc1ccc(C(=O)N(CC(C)(C)CCCCCCn2cc(CCCCCCCCCCCC(=O)NCCCN(CC(=O)O)CC(=O)O)nn2)c2cccc(C)n2)c(N2CCC(COc3cc([C@@H](CC(=O)O)C4CC4)ccn3)CC2)c1 [Example 205] | 0.93 | – | –
30 | COc1ccc(C(=O)N(CC(C)(C)CCCCCCn2cc(CCCCCCCCCCCCCC(=O)NCCCN(CC(=O)O)CC(=O)O)nn2)c2cccc(C)n2)c(N2CCC(COc3cc([C@@H](CC(=O)O)C4CC4)ccn3)CC2)c1 [Example 206] | 0.59 | – | –
31 | COc1ccc(C(=O)N(CC(C)(C)CCCCCCn2cc(CCCCCCCCC(=O)NCCC[N+](C)(CC(=O)[O-])CC(=O)O)nn2)c2cccc(C)n2)c(N2CCC(COc3cc([C@@H](CC(=O)O)C4CC4)ccn3)CC2)c1 (stereo partly shown) [Example 207] | 20.5 | – | –
32 | COc1ccc(C(=O)N(CC(C)(C)CCCCCCn2cc(CCCCCCCCCC(=O)NCCC[N+](C)(CC(=O)[O-])CC(=O)O)nn2)c2cccc(C)n2)c(N2CCC(COc3cc([C@@H](CC(=O)O)C4CC4)ccn3)CC2)c1 (stereo partly shown) [Example 208] | 5.15 | – | –
33 | COc1ccc(C(=O)N(CC(C)(C)CCCCCCn2cc(CCCCCCCCCCCC(=O)NCCC[N+](C)(CC(=O)[O-])CC(=O)O)nn2)c2cccc(C)n2)c(N2CCC(COc3cc([C@@H](CC(=O)O)C4CC4)ccn3)CC2)c1 (stereo partly shown) [Example 209] | 1 | – | –
34 | COc1ccc(C(=O)N(CC(C)(C)CCCCCCn2cc(CCCCCCCCCCCCCC(=O)NCCC[N+](C)(CC(=O)[O-])CC(=O)O)nn2)c2cccc(C)n2)c(N2CCC(COc3cc([C@@H](CC(=O)O)C4CC4)ccn3)CC2)c1 (stereo partly shown) [Example 210] | 0.54 | – | –
35 | COc1ccc(C(=O)N(CC(C)(C)CCCCCCn2cc(CCCCC(=O)NCCC[N+](C)(CC(=O)[O-])CC(=O)O)nn2)c2cccc(C)n2)c(N2CCC(COc3cc([C@@H](CC(=O)O)C4CC4)ccn3)CC2)c1 (stereo partly shown) [Example 211] | 66.3 | – | –
36 | COc1ccc(C(=O)N(CC(C)(C)CCCCCCn2cc(CCCCCCC(=O)NCCC[N+](C)(CC(=O)[O-])CC(=O)O)nn2)c2cccc(C)n2)c(N2CCC(COc3cc([C@@H](CC(=O)O)C4CC4)ccn3)CC2)c1 (stereo partly shown) [Example 212] | 143 | – | –
